Kd data for 16 compounds are collected here from publication PMC9230431, “Application of In Silico Filtering and Isothermal Titration Calorimetry for the Discovery of Small Molecule Inhibitors of MDM2” (Pharmaceuticals, 2022).

Usually pKd stands for the negative decadic logarithm of the Kd, by convention in mol/L. Low readings indicate a large Kd, high ones a small Kd.

pKd: −log10 of the molar value.

In one test the target is T1, MDM2 (Homo sapiens, UniProt Q00987).
T1 construct: His tag-GB1-TEV site fusion expressed in E. coli BL21; His-GB1 removed by TEV cleavage
T1 sequence (Q00987 5-125): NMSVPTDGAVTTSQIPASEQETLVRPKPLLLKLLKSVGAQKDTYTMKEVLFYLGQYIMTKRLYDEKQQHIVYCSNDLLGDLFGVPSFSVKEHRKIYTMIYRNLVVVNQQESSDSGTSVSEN
The test is described as follows: ITC, MDM2 titrated into compound, single-site fit. The class given is binding.
Conditions: not given
The source says:
ITC, MDM2 titrated into compound, single-site fit on MDM2
Take `Cc1cccc(C)c1NC(=O)C(c1ccc(Cl)cc1)N1C(=O)CC1c1cccc(C(F)(F)F)c1` (stereo not shown) [M1-7]: the pKd was 4.47.

In turn, `Cc1cccc(C)c1NC(=O)C(c1ccc(Cl)cc1)N1C(=O)CC1c1ccsc1` (stereo not shown) [M1-10] had a pKd of 4.71.

The compound `Cc1ccc(C2CC(=O)N2C(C(=O)Nc2c(C)cccc2C)c2ccc(Cl)cc2)o1` (stereo not shown) [M1-11] showed a pKd of 4.88.

Turning to `Cc1cccc(C)c1NC(=O)C(c1ccc(Cl)cc1)N1C(=O)CC1c1ccc(OC(C)C)cc1` (stereo not shown) [M1], the pKd was 5.55.

`O=S(=O)(NC(c1c[nH]c2cccc(F)c12)C(Cl)(Cl)Cl)c1ccc(Cl)cc1` (stereo not shown) [M2-7] showed a pKd of 6.01.

As for `O=S(=O)(NC(c1c[nH]c2ccc(F)cc12)C(Cl)(Cl)Cl)c1ccc(Cl)cc1` (stereo not shown) [M2-8], the pKd is 5.80.

In turn, `O=S(=O)(NC(c1c[nH]c2cccc(Cl)c12)C(Cl)(Cl)Cl)c1ccc(Cl)cc1` (stereo not shown) [M2-10] showed a pKd of 6.24.

Consider `O=S(=O)(NC(c1c[nH]c2cc(Cl)ccc12)C(Cl)(Cl)Cl)c1ccc(Cl)cc1` (stereo not shown) [M2-11], for which the pKd is 6.15.

In turn, `Cc1ccc2c(C(NS(=O)(=O)c3ccc(Cl)cc3)C(Cl)(Cl)Cl)c[nH]c2c1` (stereo not shown) [M2-12] showed a pKd of 6.07.

Turning to `O=S(=O)(NC(c1c[nH]c2cc(F)cc(F)c12)C(Cl)(Cl)Cl)c1ccc(Cl)cc1` (stereo not shown) [M2-13], the pKd was 6.31.

As for `O=S(=O)(NC(c1c[nH]c2cc(F)ccc12)C(Cl)(Cl)Cl)c1ccc(Cl)cc1` (stereo not shown) [M2-14], the pKd was 5.91.

In turn, `COc1cc(Cl)ccc1S(=O)(=O)NC(c1c[nH]c2ccccc12)C(Cl)(Cl)Cl` (stereo not shown) [M2-15] gave a pKd of 5.50.

Consider `Cc1ccc(S(=O)(=O)NC(c2c[nH]c3cc(F)ccc23)C(Cl)(Cl)Cl)cc1` (stereo not shown) [M2-18], for which the pKd is 5.88.

`O=S(=O)(NC(c1c[nH]c2ccccc12)C(Cl)(Cl)Cl)c1ccc(Cl)cc1` (stereo not shown) [M2] showed a negative-log Kd (pKd) of 5.68.

Turning to `COc1ccccc1-c1nnc(SC2CCCCC2=O)n1-c1ccc(Cl)cc1` (stereo not shown) [M3], the pKd is 4.78.

Staying with this test, now noted: 50 mM sodium phosphate pH 6.8, 150 mM NaCl, 5% DMSO, 1 mM TCEP.
The compound `Cc1[nH]c2ccccc2c1C(NS(=O)(=O)c1ccc(Cl)cc1)C(Cl)(Cl)Cl` (stereo not shown) [M2-3] showed a pKd of 4.30.
